{"source": "patent US7153886B2", "about": "“Method for treatment of peripheral inflammation of a loop ileal artificial anus” (Tanabe Seiyaku Co., Ltd., priority 1999, dated 2006)", "key": {"[1]": {"tested_on": "intestinal mucosal injury induced by intra-intestinal infusion of acetic acid", "test": "Prophylactic or therapeutic effect on acetic acid-induced intestinal injury", "format": "in vivo", "conditions": "Fischer rats", "excerpt": "Sulfodehydroabietic acid monosodium salt […] (hereinafter referred to as Ecabet sodium) of the active ingredient of the present invention was previously administered to Fischer rats, and the prophylactic or therapeutic effect thereof on intestinal mucosal injury induced by intra-intestinal infusion of acetic acid was studied. Namely, granules containing Ecabet sodium (0.5 g, trade name: Gastrome granule, containing 1.0 g of Ecabet sodium per 1.5 g, hereinafter simply referred to as Ecabet sodium-containing granules) were suspended in a physiological saline, and the mixture was injected intra-rectally to Fischer rats. One hour thereafter, a 25% acetic acid solution was intra-rectally injected to the rats. Two hours after the administration of acetic acid, the intestine was excised from the rats, and the histopathological changes in the surface of the intestinal inner wall was observed visually and with a microscope, and the injury of the intestinal mucosa was evaluated both macroscopically and histologically. In the control group, the same procedures were repeated except for that a physiological saline was administered instead of a suspension of Ecabet sodium-containing granules in a physiological saline. […] In addition, the degree of the intestine mucosal injury between the physiological saline-treated group and the Ecabet sodium-treated group was scored and compared according to the criteria as mentioned below, which was based on the method for Classification and Evaluation of Macpherson, B. R. et al., Digestion, 17, p. 135–150 (1978). The data is indicated in Table 1. • (1) Scoring criteria of degree of macroscopic injury: [table] • (2) Scoring criteria of degree of histological injury: [table]"}, "[2]": {"tested_on": "TNBS-induced enteritis; mucosal injury of the intestine induced by acetic acid", "test": "Effect on TNBS-induced enteritis (followed by acetic acid)", "format": "in vivo, Fischer rats", "procedure": "Ecabet sodium of the active ingredient of the present invention was administered to Fischer rats to which TNBS was previously intra-intestinally injected to induce chronic enteritis, and further acetic acid was administered to the rats. Prophylactic or therapeutic effect of Ecabet sodium on the mucosal injury of the intestine induced by acetic acid was studied.\nNamely, a solution of TNBS (2,4,6-trinitrobenzenesulfonic acid) in 50% ethanol was injected intra-intestinally to Fischer rats at a dose of 50 mg per 1 kg of the body weight to give the TNBS-induced enteritis. Three weeks thereafter, Ecabet sodium-containing granules (0.5 g) was suspended in a physiological saline, and the mixture was administered intra-rectally to the rats. Thirty minutes thereafter, a 25% acetic acid solution was intra-rectally injected to the rats, and two hours after the acetic acid administration, the intestine was excised from the rats, and the intestinal mucosal injury thereof was scored and evaluated both macroscopically and histologically in the same manner as in Experiment 1 according to the Macpherson's method for Classification and Evaluation. In the control group, the same procedures were repeated except for that a physiological saline was administered instead of a suspension of Ecabet sodium-containing granules in a physiological saline."}, "[3]": {"tested_on": "intestinal Behçet's disease", "test": "Clinical effects in a patient of Behçet's disease", "format": "in vivo, human patient", "conditions": "person", "excerpt": "The patient was a person, whose illness had been diagnosed as intestinal Behçet's disease accompanying with the multiple ulcerative lesion at the small intestine, and who had been medically treated (i.e., administration of a steroid, etc.). Then, the patient was operated surgically twice to excise the intestine on account of massive melena and regional peritonitis but the lesion of the remaining intestine was exacerbated, and further ileus, melena, and peritonitis symptoms caused by anastomotic recrudescence appeared. In order to excise the injured intestine, the abdomen of the patient was incised, but the injured area was so large that the intestine could not be excised, so that a loop ileal artificial anus was installed for administration of Ecabet sodium.\nEcabet sodium was administered to the patient mentioned above. That is, Ecabet sodium-containing granules (1.5 g) were orally administered twice a day. Further, said granules (1.5 g) were pulverized in a mortar, suspended in water, and the resultant was directly administered into the intestine through the artificial anus twice a day. After the administration of Ecabet sodium, the pain and the melena disappeared in a several days."}, "[4]": {"tested_on": "large and small intestine Crohn's disease", "test": "Clinical effects in a patient of Crohn's disease", "format": "in vivo, human patient", "conditions": "person; one year after the start of the administration", "procedure": "The patient was a person, whose illness was diagnosed from the pathological data as large and small intestine Crohn's disease. The exacerbation and the remission were mutually repeated, and the patient was treated with a conventional medicine, but the exacerbation of the anal lesion and the bleeding at the intestine could not be controlled. Although a surgical excision of the lesion was considered, the area of the lesion was so large that it could not be excised, and therefore, a loop ileal artificial anus was installed for administration of Ecabet sodium. Ecabet sodium was administered to the patient mentioned above. That is, Ecabet sodium-containing granules (1.5 g) were pulverized in a mortar, suspended in water, and the resultant was directly administered into the intestine through the artificial anus once a day."}, "[5]": {"tested_on": "left-sided colon ulcerative colitis", "test": "Clinical effects in ulcerative colitis (Experiments 5-7)", "format": "in vivo, human patient", "procedure": "The patient was a person, whose illness was diagnosed as left-sided colon ulcerative colitis. The patient was medicated with mesalazine and a steroid, and treated with leukocytapheresis, but the rectal lesion was remained, and the symptoms were not improved any further. The inflammation was scored as Matts Grade 3 (Quarterly Journal of Medicine, New Series, No. 120, October 1961), and it was so frail that it bled when the endoscopic examination was carried out.\n(§1) Ecabet sodium was administered to the patient mentioned above. That is, Ecabet sodium-containing granules (1.5 g) were pulverized in a mortar, suspended in a physiological saline (20 ml), and the resultant was rectally administered through the anus twice a day. After the administration, the inflammation was remitted to Matts Grade 2, and the inflammation area was decreased.\nThe patient was a person, whose illness was diagnosed as left-sided colon ulcerative colitis. The patient was medicated with mesalazine, predonine and a steroid, by which the inflammation was controlled to a degree of disseminated ulcer at the rectum, but further improvement was not obtained.\nas §1, with “ulcer” for “inflammation”, “improved into a red scar.” for “remitted to Matts Grade 2, and the inflammation area was decreased.”\nThe patient was a person, whose illness was diagnosed as left-sided colon ulcerative colitis. The patient was medicated with salazosulfapyridine and predonine, and treated with leukocytapheresis, but the inflammation condition at the rectum could not be controlled, and the bleeding and the melena lasted.\nEcabet sodium was administered to the patient mentioned above. That is, Ecabet sodium-containing granules (1.5 g) were pulverized in a mortar, suspended in a physiological saline (20 ml), and the resultant was rectally administered through the anus twice a day."}, "[6]": {"tested_on": "acute hemorrhagic rectal ulcer", "test": "Clinical effects in acute hemorrhagic rectal ulcer (Experiments 8-10)", "format": "in vivo, human patient", "procedure": "The patient was a person, who was hospitalized for treatment of HCV-associated hepatocirrhosis, hepatocellular carcinoma and esophageal varices. After the endoscopic ossification treatment for the esophageal varices was done, an acute hemorrhagic rectal ulcer appeared at whole of the lower rectum. The patient was treated with total parenteral nutrition for 52 days, but the conditions were not improved. Ecabet sodium was administered to the patient mentioned above. That is, Ecabet sodium-containing granules (1.5 g) were suspended in water, and the resultant was injected through the anus twice a day for about 1.5 month. […] The patient was a person, who was hospitalized for treatment of the right thighbone break. During the treatment thereof, an acute hemorrhagic rectal ulcer occurred at whole of the lower rectum. The patient was treated with total parenteral nutrition, but the conditions were not improved. Ecabet sodium was administered to the patient mentioned above. That is, Ecabet sodium-containing granules (1.5 g) were suspended in water, and the resultant was injected through the anus twice a day for about 2.5 months. […] The patient was a person, who was hospitalized for treatment of pancreatic cancer. During the treatment, an acute hemorrhagic rectal ulcer appeared at whole of the lower rectum. Ecabet sodium was administered to the patient mentioned above. That is, Ecabet sodium-containing granules (1.5 g) were suspended in water, and the resultant was injected through the anus twice a day for about 1 month."}, "[7]": {"tested_on": "ileum pouchitis accompanying with acute hemorrhagic ulcer", "test": "Clinical effects in ileum pouchitis", "format": "in vivo, human patient", "conditions": "Experiment 11, person; granules 1.5 g in water through the anus twice a day for about 4 months", "procedure": "The patient was a person. During the postoperative treatment, ileum pouchitis accompanying with acute hemorrhagic ulcer appeared at the ileum pouch which was subjected to ileal pouch/anal anastomosis by the operation for ulcerative colitis. Ecabet sodium was administered to the patient mentioned above. That is, Ecabet sodium-containing granules (1.5 g) were suspended in water, and the resultant was injected through the anus twice a day for about 4 months."}, "[8]": {"conditions": "compared with the disodium salt; cited from earlier work"}, "[9]": {"conditions": "Ecabet sodium-containing granules 0.5 g in saline intra-rectally 1 h before 25% acetic acid, intestine excised 2 h after acetic acid, mean ± s.e. of sum of scores (0-3) of 4 items"}, "[10]": {"conditions": "Fischer rats 3 weeks after TNBS 50 mg/kg, granules 0.5 g intra-rectally 30 min before 25% acetic acid, 2 h after acetic acid, P < 0.05 vs saline"}}, "note": "“Also recorded” adds a separate entry of the source. Structures can show the parent of a compound that is named as a salt.", "data": [{"smiles": "CC(C)c1cc2c(cc1S(=O)(=O)O)[C@@]1(C)CCC[C@@](C)(C(=O)O)[C@@H]1CC2", "note": "[Ecabet sodium, (+)-(1R,4aS,10aR)-1,2,3,4,4a,9,10,10a-octahydro-1,4a-dimethyl-7-(1-methylethyl)-6-sulfo-1-phenanthrenecarboxylic acid 6-sodium salt pentahydrate]", "values": [{"measurement": "Degree of Histological Injury", "setting": "[1]; [9]", "value": "2.3 ± 0.4"}, {"measurement": "Degree of Macroscopic Injury", "setting": "[1]; [9]", "value": "1.3 ± 0.2"}, {"measurement": "intestinal mucosal injury induced by acetic acid (observation)", "setting": "[1]; versus physiological saline-treated rats (injury broadly observed)", "value": "hardly observed"}, {"measurement": "Degree of Histological Injury", "setting": "[2]; [10]", "value": "4.6 ± 0.4"}, {"measurement": "Degree of Macroscopic Injury", "setting": "[2]; [10]", "value": "3.9 ± 0.3"}, {"measurement": "intestinal mucosal injury (observation)", "setting": "[2]; TNBS-enteritis Fischer rats, versus physiological saline-treated rats", "value": "effectively inhibited"}, {"measurement": "ulcerative lesion in the endoscopic finding", "setting": "[3]; 2 weeks after the start of the administration", "value": "remarkably improved"}, {"measurement": "recrudescence", "setting": "[3]; 7 months after the start of the administration", "value": "has not been observed"}, {"measurement": "pain and melena", "setting": "[3]; granules 1.5 g orally twice a day plus 1.5 g through artificial anus twice a day, in a several days", "value": "disappeared"}, {"measurement": "injury of the intestinal mucosa (endoscope)", "setting": "[4]", "value": "disappeared"}, {"measurement": "Inflammation, Matts Grade, after the administration", "setting": "[5]; Experiment 5, person, granules 1.5 g in saline 20 ml rectally twice a day, Matts Grade 3 before", "value": "Grade 2"}, {"measurement": "Area of inflammation after the administration", "setting": "[5]; Experiment 5, person, granules 1.5 g rectally twice a day", "value": "decreased; also recorded: reduced"}, {"measurement": "inflammation of the intestine tissue at the lesion (endoscope)", "setting": "[5]; Experiment 5, 11 days after the start of the administration", "value": "remarkably improved"}, {"measurement": "ulcer at the rectum after the administration (endoscope)", "setting": "[5]; Experiment 6, person, granules 1.5 g in saline 20 ml rectally twice a day, 18 days, intractable ulcer before", "value": "turned into a red scar; also recorded: Improvement into a red"}, {"measurement": "inflammation condition after the administration", "setting": "[5]; Experiment 7, person, granules 1.5 g in saline 20 ml rectally twice a day, mild to moderate inflammation before", "value": "only a slight erythema was remained; also recorded: Improvement into a slight"}, {"measurement": "inflammation of the lesion (endoscope)", "setting": "[5]; Experiment 7, 12 days after the start of the administration", "value": "almost disappeared"}, {"measurement": "acute hemorrhagic rectal ulcer outcome", "setting": "[6]; Experiment 8, person, granules 1.5 g in water through the anus twice a day for about 1.5 month", "value": "cured without any cicatricial stenosis"}, {"measurement": "acute hemorrhagic rectal ulcer outcome", "setting": "[6]; Experiment 9, person, granules 1.5 g in water through the anus twice a day for about 2.5 months", "value": "cured without any cicatricial stenosis"}, {"measurement": "acute hemorrhagic rectal ulcer outcome", "setting": "[6]; Experiment 10, person, granules 1.5 g in water through the anus twice a day for about 1 month", "value": "cured without any cicatricial stenosis"}, {"measurement": "ileum pouchitis and ulcer outcome", "setting": "[7]", "value": "cured without any cicatricial stenosis"}]}, {"smiles": "CC(C)c1cc2c(cc1S(=O)(=O)[O-])[C@@]1(C)CCC[C@@](C)(C(=O)O)[C@@H]1CC2.[Na+]", "note": "[Sulfodehydroabietic acid monosodium salt]", "values": [{"measurement": "hygroscopicity", "setting": "[8]", "value": "less hygroscopic"}, {"measurement": "stability", "setting": "[8]", "value": "more stable"}]}]}
